Measured values: paper PMC12643509, “High-throughput screens identify genotype-specific therapeutics for channelopathies” (JCI Insight, 2025)
Where “and” joins values, the source holds several entries; their conditions need not be identical. Equal values may be shown once.

Columns and labels:
WT Kv11.1 = WT Kv11.1 (Homo sapiens, UniProt Q12809); settings: 24 hour and washout, individual wells
From the text: plot of hits tested for 24-h our WT toxicity. Each point repres ents the med ia n robust Z score
after 24-hour treatm ent and washout in cells ex pressing WT.
robust Z scores be low bas eli ne function).
second ary screens w ere perform ed i n triplicate us ing 1 0 µ M drug treatme nt to assess: 1)
acute channel block, measur ed after a 15-minute inc ubati on with the drug present duri ng
recordi ngs; and 2) t oxicit y in W T channels, assesse d af t er a 24-hour drug ex posure fol low ed
(C) Tl+-measurements after 24-hour treatment and washout in HEK cells

wild-type KV11.1 = wild-type KV11.1 (Homo sapiens, UniProt Q12809)
wild-type KV11.1, sequence (Q12809 whole entry): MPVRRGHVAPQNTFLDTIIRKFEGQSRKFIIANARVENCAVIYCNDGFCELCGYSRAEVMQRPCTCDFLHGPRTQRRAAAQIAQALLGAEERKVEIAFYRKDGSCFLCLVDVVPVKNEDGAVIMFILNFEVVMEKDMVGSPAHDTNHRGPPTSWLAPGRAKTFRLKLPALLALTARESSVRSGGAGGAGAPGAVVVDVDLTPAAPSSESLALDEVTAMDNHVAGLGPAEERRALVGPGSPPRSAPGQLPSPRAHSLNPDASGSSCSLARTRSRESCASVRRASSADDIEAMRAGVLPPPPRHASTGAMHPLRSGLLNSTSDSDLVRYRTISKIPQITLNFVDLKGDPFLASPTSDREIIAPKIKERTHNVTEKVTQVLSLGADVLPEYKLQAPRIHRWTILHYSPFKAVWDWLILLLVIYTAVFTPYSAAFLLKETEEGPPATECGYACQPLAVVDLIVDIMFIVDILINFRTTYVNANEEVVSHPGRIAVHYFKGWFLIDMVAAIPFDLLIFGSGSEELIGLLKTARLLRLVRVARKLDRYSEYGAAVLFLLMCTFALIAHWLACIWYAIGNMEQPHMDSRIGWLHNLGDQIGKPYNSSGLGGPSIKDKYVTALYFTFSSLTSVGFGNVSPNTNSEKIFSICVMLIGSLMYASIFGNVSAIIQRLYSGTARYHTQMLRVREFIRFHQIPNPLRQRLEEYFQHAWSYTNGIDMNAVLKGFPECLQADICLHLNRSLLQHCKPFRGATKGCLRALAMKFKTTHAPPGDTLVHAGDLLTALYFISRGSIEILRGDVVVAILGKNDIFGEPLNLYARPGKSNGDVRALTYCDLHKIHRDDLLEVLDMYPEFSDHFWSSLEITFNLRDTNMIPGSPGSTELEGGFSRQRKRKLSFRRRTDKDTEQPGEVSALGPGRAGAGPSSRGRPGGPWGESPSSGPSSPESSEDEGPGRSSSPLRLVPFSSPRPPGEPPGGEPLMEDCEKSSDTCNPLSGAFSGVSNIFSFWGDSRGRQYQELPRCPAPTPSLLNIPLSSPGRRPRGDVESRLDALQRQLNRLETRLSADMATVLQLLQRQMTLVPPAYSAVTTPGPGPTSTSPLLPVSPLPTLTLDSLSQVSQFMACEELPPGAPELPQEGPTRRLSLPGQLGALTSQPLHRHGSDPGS

WT Kv11.1, sequence (Q12809 whole entry): as above

SMILES	Changes in WT function (thallium flux) (WT Kv11.1)	inhibition of WT channels (wild-type KV11.1)
OC[C@H]1O[C@H](O[C@]2(CCl)O[C@H](CCl)[C@@H](O)[C@@H]2O)[C@H](O)[C@@H](O)[C@H]1Cl [Sucralose, sucralose]	0.1161 and 0.1317 and 0.1214	did not inhibit WT channels
CCc1c(C)[nH]c2c1C(=O)C(CN1CCOCC1)CC2 (stereo not drawn) [Moban, moban]		did not inhibit WT channels
